Reference: patent US20220362396A1, “AMINO-PYRAZINECARBOXAMIDE COMPOUNDS, CONJUGATES, AND USES THEREOF” (Silverback Therapeutics, Inc., priority 2018, published 2022)

How the values were obtained:
[1] = tested on: TGFβ/SMAD Signaling Pathway SBE reporter cell line; assay: TGFβ reporter assay, in vitro small molecule screening (luciferase); type: cell-based; conditions: TGFβ stimulation, luminescence
In short: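 SBE luciferase reporter cells (~0.5×10^6 cells/mL) preincubated with compound 5-6 h at 37 °C in 0.5% FBS MEM, then stimulated with TGFβ (12 ng/mL stock) for 18 h. Luminescence read after luciferase substrate; EC50 from curve fits.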

TGFBR2 = molecular target: T1, TGFBR2 (Homo sapiens, UniProt P37173); assay: TGFBR2 RBC assay (enzyme inhibition assay, Reaction Biology Corp.); type: biochemical
T1 construct: purchased Reaction Biology Corp
T1 sequence (P37173 23-567): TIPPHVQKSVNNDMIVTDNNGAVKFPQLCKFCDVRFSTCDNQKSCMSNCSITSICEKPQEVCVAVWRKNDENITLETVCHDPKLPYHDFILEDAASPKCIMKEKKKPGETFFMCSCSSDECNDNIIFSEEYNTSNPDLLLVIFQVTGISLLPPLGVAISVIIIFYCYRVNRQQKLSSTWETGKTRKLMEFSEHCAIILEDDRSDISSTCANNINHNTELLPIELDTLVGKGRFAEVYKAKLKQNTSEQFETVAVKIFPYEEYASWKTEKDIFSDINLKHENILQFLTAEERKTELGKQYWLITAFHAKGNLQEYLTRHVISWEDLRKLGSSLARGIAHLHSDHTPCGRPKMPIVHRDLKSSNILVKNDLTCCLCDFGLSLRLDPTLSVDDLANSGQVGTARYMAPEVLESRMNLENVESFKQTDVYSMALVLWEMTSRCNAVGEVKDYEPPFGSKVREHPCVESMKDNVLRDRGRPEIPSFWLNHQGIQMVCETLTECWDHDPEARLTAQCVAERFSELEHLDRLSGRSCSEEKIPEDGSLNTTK
Experimental: Compounds of the disclosure were also assayed by Reaction Biology Corp. using the TGFBR2 RBC assay (enzyme inhibition assay). […] NT refers to not tested.

SMILES | EC50 [1] [nM] | IC50 (TGFBR2) [nM]
Nc1ncc(-c2ccc(OCC[C@@H](N)C(=O)O)cc2)nc1C(=O)Nc1cnccc1N1CCOCC1 [Compound 275] | > 1000 | 50 to 100
Nc1ncc(-c2ccc3c(c2)CCCNC3)nc1C(=O)Nc1cnccc1N1CCOCC1 [Compound 229] | 100 to 1000 | 50 to 100
CCc1nccn1-c1ccncc1NC(=O)c1nc(-c2ccc(CCN)cc2)cnc1N [Compound 140] | > 1000 | < 50
NCC1CN(c2ccncc2NC(=O)c2nc(-c3ccc(CCNC(=O)OCc4ccccc4)cc3)cnc2N)CCO1 (centres unmarked) [Compound 41] | 100 to 1000 | 100 to 1000
COC(=O)[C@H](CCOc1ccc(-c2cnc(N)c(C(=O)Nc3cnccc3N3CCOCC3)n2)cc1)NC(=O)OCc1ccccc1 [Compound 264] | > 1000 | < 50
NCCCc1cccc(-c2cnc(N)c(C(=O)Nc3cnccc3N3CCOCC3)n2)c1 [Compound 182] | 100 to 1000 | < 50
COC(=O)[C@@H](Cc1ccc(-c2cnc(N)c(C(=O)Nc3cnccc3N3CCOCC3)n2)cc1)NC(=O)OC(C)(C)C [Compound 192] | 100 to 1000 | < 50
CC(C)(C)OC(=O)N1CCN(c2cnc(N)c(C(=O)Nc3cnccc3N3CCOCC3)n2)CC1 [Compound 115] | > 1000 | > 1000
Nc1ncc(-c2ccc(CCNC(=O)OCc3ccccc3)cc2)nc1C(=O)Nc1cnccc1N1CC2(COC2)C1 [Compound 95] | > 1000 | > 1000
NCCCc1ccc(-c2cnc(N)c(C(=O)Nc3cc(F)ccc3N3CCOCC3)n2)cc1 [Compound 66] | > 1000 | 100 to 1000
Nc1ncc(-c2ccc(Cl)c(Cl)c2)nc1C(=O)Nc1cnccc1N1CCOCC1 [Compound 154] | > 1000 | 100 to 1000
NCCc1ccc(-c2cnc(N)c(C(=O)Nc3cnccc3N3CCOCC3)n2)cc1 [Compound 6] | 50 to 100 | < 50
Nc1ncc(-c2ccc(CCNC(=O)OCc3ccccc3)cc2)nc1C(=O)Nc1cnccc1-c1ccccn1 [Compound 133] | > 1000 | < 50
Nc1ncc(-c2ccc(CCNC(=O)OCc3ccccc3)cn2)nc1C(=O)Nc1cnccc1N1CCOCC1 [Compound 116] | 100 to 1000 | 100 to 1000
Cc1cc(-c2ccncc2NC(=O)c2nc(-c3ccc(CCNC(=O)OCc4ccccc4)cc3)cnc2N)ccn1 [Compound 17] | 100 to 1000 | 100 to 1000
Nc1ccc(-c2ccncc2NC(=O)c2nc(-c3ccc(CCNC(=O)OCc4ccccc4)cc3)cnc2N)cn1 [Compound 43] | 100 to 1000 | < 50
NCCNc1ccc(-c2cnc(N)c(C(=O)Nc3cnccc3N3CCOCC3)n2)cc1 [Compound 271] | 100 to 1000 | < 50
NCC1CCc2cc(-c3cnc(N)c(C(=O)Nc4cnccc4N4CCOCC4)n3)ccc2N1 (centres unmarked) [Compound 244] | 100 to 1000 | < 50
Nc1ncc(-c2ccc3c(c2)CCNC3CN2C(=O)c3ccccc3C2=O)nc1C(=O)Nc1cnccc1N1CCOCC1 (centres unmarked) [Compound 232] | > 1000 | < 50
CC(C)(C)OC(=O)N[C@H]1C[C@@H](Oc2ccc(-c3cnc(N)c(C(=O)Nc4cnccc4N4CCOCC4)n3)cc2)C1 [Compound 223] | 100 to 1000 | < 50
CC(CN)Oc1cccc(-c2cnc(N)c(C(=O)Nc3cnccc3N3CCOCC3)n2)c1 (centres unmarked) [Compound 190] | 100 to 1000 | 50 to 100
COC1CCN(c2ccncc2NC(=O)c2nc(-c3ccc(CCNC(=O)OCc4ccccc4)cc3)cnc2N)CC1 [Compound 42] | 100 to 1000 | 50 to 100
CC(CN)Oc1ccc(-c2cnc(N)c(C(=O)Nc3cnccc3N3CCCOCCC3)n2)cc1 (centres unmarked) [Compound 261] | > 1000 | > 1000
NCCc1ccc(-c2cnc(N)c(C(=O)Nc3cnccc3N3CCOCC3)n2)nc1 [Compound 117] | > 1000 | 100 to 1000
Nc1ncc(-c2ccc(C[C@@H](N)CO)cc2)nc1C(=O)Nc1cnccc1N1CCOCC1 [Compound 202] | 100 to 1000 | < 50
Nc1ncc(-c2ccc(CCNC(=O)OCc3ccccc3)cc2)nc1C(=O)Nc1cnccc1CN1CCCC1 [Compound 72] | 100 to 1000 | 50 to 100

SMILES | EC50 [1] [nM] | IC50 (TGFBR2) [nM]
N#Cc1ccc(-c2ccncc2NC(=O)c2nc(-c3ccc(CCNC(=O)OCc4ccccc4)cc3)cnc2N)cc1 [Compound 15] | 100 to 1000 | 100 to 1000
NCCOc1cccc(-c2cnc(N)c(C(=O)Nc3cnccc3N3CCOCC3)n2)c1 [Compound 184] | 100 to 1000 | < 50
CC(C)(C)OC(=O)N[C@H](Cc1ccc(-c2cnc(N)c(C(=O)Nc3cnccc3N3CCOCC3)n2)cc1)C(=O)O [Compound 196] | 100 to 1000 | < 50
NCCc1ccc(-c2cnc(N)c(C(=O)Nc3cnc(N)cc3N3CCOCC3)n2)cc1 [Compound 135] | > 1000 | > 1000
Nc1ncc(-c2ccc(S(=O)(=O)N3CCN(C(=O)OCc4ccccc4)CC3)cc2)nc1C(=O)Nc1cnccc1N1CCOCC1 [Compound 63] | 50 to 100 | 100 to 1000
COc1cccc(-c2cnc(N)c(C(=O)Nc3cnccc3N3CCOCC3)n2)c1 [Compound 155] | 100 to 1000 | < 50
NCCc1cccc(-c2cnc(N)c(C(=O)Nc3cnccc3N3CCOCC3)n2)c1 [Compound 181] | 100 to 1000 | < 50
NCCc1ccc(-c2cnc(N)c(C(=O)Nc3cnccc3-c3ccncc3)n2)cc1 [Compound 129] | 100 to 1000 | 50 to 100
Nc1ncc(-c2ccc3c(c2)CC(O)C3)nc1C(=O)Nc1cnccc1N1CCOCC1 (centres unmarked) [Compound 248] | 100 to 1000 | < 50
COC(=O)[C@@H](N)Cc1ccc(-c2cnc(N)c(C(=O)Nc3cnccc3N3CCOCC3)n2)cc1 [Compound 203] | > 1000 | < 50
Nc1ncc(-c2cccc3c2CCC3)nc1C(=O)Nc1cnccc1N1CCOCC1 [Compound 179] | > 1000 | 50 to 100
COc1ccc(-c2cnc(N)c(C(=O)Nc3cnccc3N3CCOCC3)n2)cc1OC [Compound 158] | 100 to 1000 | < 50
Cc1cnccc1-c1ccncc1NC(=O)c1nc(-c2ccc(CCNC(=O)OCc3ccccc3)cc2)cnc1N [Compound 32] | 50 to 100 | 100 to 1000
NCCc1ccc(-c2cnc(N)c(C(=O)Nc3cnccc3CN3CCCC3)n2)cc1 [Compound 93] | 100 to 1000 | 100 to 1000
Nc1ncc(-c2ccc(CCNC(=O)OCc3ccccc3)cc2)nc1C(=O)Nc1cnccc1N1CCOCCC1=O [Compound 47] | > 1000 | > 1000
CC(CN)Oc1ccc(-c2cnc(N)c(C(=O)Nc3cnccc3N3CCCCOCC3)n2)cc1 (centres unmarked) [Compound 257] | > 1000 | < 50
CC(C)(C)OC(=O)NC1CCN(c2ccc(-c3cnc(N)c(C(=O)Nc4cnccc4N4CCOCC4)n3)cc2)CC1 [Compound 280] | 100 to 1000 | < 50
NCCOc1ccc(-c2cnc(N)c(C(=O)Nc3cnccc3N3CCOCC3)n2)cc1 [Compound 64] | 50 to 100 | < 50
Nc1ncc(-c2cc(Cl)ccc2Cl)nc1C(=O)Nc1cnccc1N1CCOCC1 [Compound 161] | 100 to 1000 | 100 to 1000
CC1CCNc2ccc(-c3cnc(N)c(C(=O)Nc4cnccc4N4CCOCC4)n3)cc21 (centres unmarked) [Compound 216] | 50 to 100 | < 50
Nc1ncc(-c2ccc(CC(=O)N3CCN(C(=O)OCc4ccccc4)CC3)cc2)nc1C(=O)Nc1cnccc1N1CCOCC1 [Compound 90] | 50 to 100 | < 50
CC(C)(C)OC(=O)N1CCc2cc(-c3cnc(N)c(C(=O)Nc4cnccc4N4CCOCC4)n3)ccc2C1CN (centres unmarked) [Compound 230] | 50 to 100 | < 50
NCCc1ccc(-c2cnc(N)c(C(=O)Nc3cnccc3-c3cccnc3)n2)cc1 [Compound 127] | 100 to 1000 | < 50
Nc1ncc(-c2ccc(CN3CCNCC3=O)cc2)nc1C(=O)Nc1cnccc1N1CCOCC1 [Compound 87] | 50 to 100 | < 50
CC(C)(C)OC(=O)NC1CCN(c2cnc(N)c(C(=O)Nc3cnccc3N3CCOCC3)n2)CC1 [Compound 122] | > 1000 | > 1000
Nc1ncc(-c2ccc(CCNC(=O)OCc3ccccc3)cc2)nc1C(=O)Nc1cnccc1-n1ccnc1 [Compound 137] | > 1000 | < 50
